Data as given in US6369094B1, “Polymorphic salt” (Pfizer Inc., priority 1999, dated 2002).
In brackets after ≈: the same amount, converted by molar mass. Structures can show the parent of a compound that is named as a salt.

Experiments:
[1] = type: physicochemical; settings: pH 6
[2] = Compression studies in an IR bench press; type: physicochemical; settings: 5 tonnes for 1 minute, 13 mm punch and die set
[3] = Stability study: polymorphic form re-examined by PXRD and DSC; type: physicochemical; settings: stored for seven months under ambient conditions
[4] = Hygroscopicity study: moisture sorption by Dynamic Vapour Sorption (DVS); type: physicochemical; settings: 0 to 75% RH, 30° C.
Procedure: The moisture sorptions of the three known polymorphs (α-form, β-form and present invention) of the hemisulphate of 3-(N-methyl-2(R)-pyrrolidinylmethyl)-5-(2-phenylsulphonylethyl)-1H-indole were determined using a Dynamic Vapour Sorption (DVS) Automated Sorption Analyser Model DVS-1 manufactured by Surface Measurements Systems Ltd, UK. Each polymorph was analysed by accurately weighing approximately 25 mg into the sample pan which was then exposed to humidities in the range 0 to 75% RH. The analysis temperature was 30° C. with a nitrogen flow rate of 200 cm^3 min^−1.

[5] = as described in European Patent 0776323; cited from earlier work
[6] = listed as hemisulphate polymorph of the present invention

| solubility [1] | polymorphic stability (PXRD and DSC) [3] | polymorphic stability (PXRD and DSC) [3, 6] | hygroscopicity (moisture sorption) [4, 6] | Compound | colour change and punch filming upon compression [2] | colour change and punch filming upon compression [2, 6] | hygroscopicity (moisture sorption) [4] | colour change and punch filming during tabletting [5] | hygroscopicity [5] | polymorphic stability [5] |
| --- | --- | --- | --- | --- | --- | --- | --- | --- | --- | --- |
| 2.90 mg/mL | – | – | – | CN1CCC[C@@H]1Cc1c[nH]c2ccc(CCS(=O)(=O)c3ccccc3)cc12 [hydrobromide, 3-(N-methyl-2(R)-pyrrolidinylmethyl)-5-(2-phenylsulphonylethyl)-1H-indole, reference compound] | – | – | – | – | – | – |
| 478 mg/mL (≈ 1250 mM) | totally unchanged | no change in its polymorphic form | negligible hygroscopicity | CN1CCC[C@@H]1Cc1c[nH]c2ccc(CCS(=O)(=O)c3ccccc3)cc12 [polymorph of the invention, 3-(N-methyl-2(R)-pyrrolidinylmethyl)-5-(2-phenylsulphonylethyl)-1H-indole] | no significant colour change and no evidence of punch filming | no significant colour change or punch filming | markedly less hygroscopic than either the α- or β-form | – | – | – |
| – | – | – | – | CN1CCC[C@@H]1Cc1c[nH]c2ccc(CCS(=O)(=O)c3ccccc3)cc12 [α-polymorph, 3-(N-methyl-2(R)-pyrrolidinylmethyl)-5-(2-phenylsulphonylethyl)-1H-indole] | – | – | – | giving rise to colour change and punch filming | hygroscopic | polymorphically unstable |
